Measured values: patent publication US5922723A, “Pharmaceutical compositions for prevention and treatment of central nervous system disorders” (priority 1996, dated 1999)
Counter-ions that a name gives are not always drawn.

Assays:
[1] = molecular target: T1, muscle-like nicotinic receptors (human clonal line TE671/RD) (Homo sapiens, UniProt P02708+P07510+Q07001); format: cell-based; conditions: for effects at muscle sites (in words): summary of Table I; for Muscle Effect: te671/rd cells
T1 construct: these cells express muscle-like nicotinic receptors; endogenous in cells; host or cells: TE671/RD (human embryonal rhabdomyosarcoma clonal line), intact cells
T1 sequence (P02708 21-457): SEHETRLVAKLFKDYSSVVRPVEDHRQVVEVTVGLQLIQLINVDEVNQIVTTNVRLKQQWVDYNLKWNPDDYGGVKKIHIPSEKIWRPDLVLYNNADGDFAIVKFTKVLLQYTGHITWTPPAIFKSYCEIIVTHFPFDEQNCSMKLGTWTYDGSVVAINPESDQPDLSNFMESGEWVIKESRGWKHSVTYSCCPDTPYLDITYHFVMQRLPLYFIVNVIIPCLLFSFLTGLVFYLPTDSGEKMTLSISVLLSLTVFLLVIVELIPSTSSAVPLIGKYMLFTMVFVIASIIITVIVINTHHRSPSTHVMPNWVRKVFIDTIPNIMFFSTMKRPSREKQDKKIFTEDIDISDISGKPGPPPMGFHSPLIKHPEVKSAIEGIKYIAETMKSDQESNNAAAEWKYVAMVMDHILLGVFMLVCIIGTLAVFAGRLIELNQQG
T1 sequence (Q07001 22-517): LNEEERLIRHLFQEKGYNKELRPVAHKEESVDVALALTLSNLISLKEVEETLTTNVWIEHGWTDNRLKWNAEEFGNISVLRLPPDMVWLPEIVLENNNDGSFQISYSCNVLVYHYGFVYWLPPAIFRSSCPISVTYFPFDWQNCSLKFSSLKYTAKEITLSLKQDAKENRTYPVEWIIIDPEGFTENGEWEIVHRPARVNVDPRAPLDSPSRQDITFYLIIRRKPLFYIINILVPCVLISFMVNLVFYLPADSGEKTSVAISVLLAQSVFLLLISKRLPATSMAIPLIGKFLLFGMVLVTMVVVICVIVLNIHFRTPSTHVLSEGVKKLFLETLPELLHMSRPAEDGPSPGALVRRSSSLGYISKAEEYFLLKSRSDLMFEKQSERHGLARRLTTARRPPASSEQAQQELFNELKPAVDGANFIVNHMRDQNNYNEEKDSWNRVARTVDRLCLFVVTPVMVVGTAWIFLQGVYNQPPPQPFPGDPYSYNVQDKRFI
T1 sequence (P07510 23-517): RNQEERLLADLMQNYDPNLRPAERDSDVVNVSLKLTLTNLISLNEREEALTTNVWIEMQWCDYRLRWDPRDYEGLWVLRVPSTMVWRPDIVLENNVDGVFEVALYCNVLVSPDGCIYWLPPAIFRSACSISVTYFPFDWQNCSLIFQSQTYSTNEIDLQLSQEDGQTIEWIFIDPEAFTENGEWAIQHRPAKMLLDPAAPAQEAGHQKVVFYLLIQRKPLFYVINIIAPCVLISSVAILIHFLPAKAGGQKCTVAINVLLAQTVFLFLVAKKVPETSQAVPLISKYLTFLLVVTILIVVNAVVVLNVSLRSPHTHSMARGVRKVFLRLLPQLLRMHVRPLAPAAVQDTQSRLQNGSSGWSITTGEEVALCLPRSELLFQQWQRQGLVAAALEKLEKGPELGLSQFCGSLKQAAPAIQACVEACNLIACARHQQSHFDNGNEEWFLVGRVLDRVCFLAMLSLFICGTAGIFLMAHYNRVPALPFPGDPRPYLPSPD
Protocol: Discussion concerning the heterogeneity of nicotinic receptors subtypes is set forth in Lukas et al., Internatl. […] Acetylcholine nicotinic receptors expressed in rat ganglia share a very high degree of homology with their human counterparts. See, Fornasari et al., Neurosci. […] Intact cells on dishes were used for functional studies.
Specific ion efflux was determined as the difference in isotope efflux between total and non-specific efflux samples.

[2] = molecular target: T2, ganglionic-type neuronal nicotinic receptors (rat pheochromocytoma clonal line PC12) (Rattus norvegicus, UniProt P04757+P12392); format: cell-based; conditions: for Ganglion Effect: pc12 cells; for effects at ganglionic sites (in words): summary of Table I
T2 construct: tumor of the rat adrenal medulla expressing ganglionic-typeneuronal nicotinic receptors; endogenous in cells; host or cells: PC12 (rat pheochromocytoma clonal line), intact cells
T2 sequence (P04757 26-499): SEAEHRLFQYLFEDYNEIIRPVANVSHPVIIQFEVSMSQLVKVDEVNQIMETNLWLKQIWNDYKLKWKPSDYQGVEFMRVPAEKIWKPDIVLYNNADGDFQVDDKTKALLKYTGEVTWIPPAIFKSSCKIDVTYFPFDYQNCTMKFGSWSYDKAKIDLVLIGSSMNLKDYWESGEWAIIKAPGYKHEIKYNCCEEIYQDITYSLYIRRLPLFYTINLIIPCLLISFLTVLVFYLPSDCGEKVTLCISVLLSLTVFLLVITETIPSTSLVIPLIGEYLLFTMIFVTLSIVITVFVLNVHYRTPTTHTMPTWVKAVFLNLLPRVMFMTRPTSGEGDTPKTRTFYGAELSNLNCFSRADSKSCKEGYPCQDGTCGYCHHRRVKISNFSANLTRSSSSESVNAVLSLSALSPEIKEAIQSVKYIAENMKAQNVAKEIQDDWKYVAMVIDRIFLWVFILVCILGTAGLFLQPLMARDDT
T2 sequence (P12392 21-495): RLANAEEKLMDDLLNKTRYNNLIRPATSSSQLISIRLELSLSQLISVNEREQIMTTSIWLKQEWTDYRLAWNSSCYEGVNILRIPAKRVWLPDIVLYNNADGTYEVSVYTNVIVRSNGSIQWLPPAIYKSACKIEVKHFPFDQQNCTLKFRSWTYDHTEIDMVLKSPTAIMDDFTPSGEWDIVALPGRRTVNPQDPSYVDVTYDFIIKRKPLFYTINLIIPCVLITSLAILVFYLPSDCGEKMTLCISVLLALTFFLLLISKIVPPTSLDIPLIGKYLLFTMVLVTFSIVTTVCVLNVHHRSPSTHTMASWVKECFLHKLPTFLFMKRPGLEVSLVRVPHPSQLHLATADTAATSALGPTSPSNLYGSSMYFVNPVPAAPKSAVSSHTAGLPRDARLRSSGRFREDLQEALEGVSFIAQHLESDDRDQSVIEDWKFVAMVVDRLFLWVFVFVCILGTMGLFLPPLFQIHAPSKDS

CNS nicotinic receptors = assay: Inhibition of L-[3H]nicotine binding to rat brain membrane preparations; set-up: species or system rat (Sprague-Dawley); conditions: for Ki: 10 nM L-[3H]nicotine, 2 hr at 4° C., rat brain membranes, calculated from IC50 (Cheng et al.); for binding to CNS nicotinic receptors (in words): summary of Table I
Protocol: Rats (Sprague-Dawley) were maintained on a 12 hour light/dark cycle and were allowed free access to water and food supplied by Wayne Lab Blox, Madison, Wis. Animals used in the present studies weighed 200 to 250 g. Brain membrane preparations were obtained from brain tissue of either males or females.
Rats were killed by decapitation following anesthesia with 70% CO2. Brains were removed and placed on an ice-cold platform. […] The resulting homogenate was centrifuged at 18,000× g for 20 min. and the resulting pellet was resuspended in 20 volumes of water. After 60 min. incubation at 4° C., a new pellet was collected by centrifugation at 18,000× g for 20 min. After resuspension in 10 volumes of buffer, a new final pellet was again collected by centrifugation at 18,000× g for 20 min. Prior to each centrifugation step, the suspension was incubated at 37° C. for 5 min. to promote hydrolysis of endogenous acetylcholine. The final pellet was overlayered with buffer and stored at -70° C. On the day of the assay, that pellet was thawed, resuspended in buffer and centrifuged at 18,000× g for 20 min. The pellet obtained was resuspended in buffer to a final concentration of approximately 5 mg protein/ml.
The binding of L-[^3 H]nicotine was measured using a 2 hr. incubation at 4° C. Incubations contained about 500 μg of protein and were conducted in 12 mm×75 mm polypropylene test tubes in a final incubation volume of 250 μl. The incubation buffer was Krebs-Ringers HEPES containing 200 mM TRIS buffer, pH 7.5. The binding reaction was terminated by filtration of the protein containing bound ligand onto glass fiber filters (Micro Filtration Systems) that had been soaked in buffer containing 0.5 percent polyethyleneimine. Filtration vacuum was -50 to -100 torr. Each filter was washed five times with 3 ml of ice-cold buffer. The filtration apparatus was cooled to 2° C. before use and was kept cold through the filtration process. Nonspecific binding was determined by inclusion of 10 uM nonradioactive nicotine in the incubations.
The inhibition of L-[^3 H]nicotine binding by test compounds was determined by including one of eight different concentrations of the test compound in the incubation.

[3] = tested on: synaptosomes from the striatal area of rat brain (dopamine release); assay: Dopamine release from synaptosomes of the striatal area of rat brain; format: biochemical, rat (Sprague-Dawley); conditions: for EC50: [3H]-dopamine; for dopamine release (in words): summary of Table I
Protocol: Striata from 4 rats were homogenized in 2 ml of 0.32 M sucrose buffered with 5 mM HEPES (pH 7.5), using a glass-Teflon tissue grinder. The homogenate was diluted to 5 ml with additional homogenization solution and centrifuged at 1,000× g for 10 min. This procedure was repeated on the new pellet and the resulting supernatant was centrifuged at 12,000× g for 20 min. A 3 layer discontinuous Percoll gradient consisting of 16 percent, 10 percent and 7.5 percent Percoll in HEPES-buffered sucrose was made with the final pellet dispersed in the top layer. […] The new pellet was collected and re-suspended in perfusion buffer. The synaptosome suspension was incubated for 10 min. at 37° C. [^3 H]-Dopamine (Amersham, 40-60 Ci/mmol) was added to the suspension to give a final concentration of 0.1 uM, and the suspension was incubated for another 5 min. […] A continuous perfusion system was used to monitor release following exposure to each ligand. Synaptosomes were loaded onto glass fiber filters (Gelman type A/E). Perfusion buffer was dripped onto the filters (0.2-0.3 ml/min.) and pulled through the filters with a peristaltic pump. Synaptosomes were washed with perfusion buffer for a minimum of 20 min. before addition of the ligand. After the addition of 0.2 ml of a solution containing various concentrations of ligand, the perfusate was collected into scintillation vials at 1 min. intervals and the dopamine released was quantified by scintillation counting. Peaks of radioactivity released above background were summed and the average basal release during that time was subtracted from the total.

[4] = rat striatal synaptosomes, % of release by equal concentration of (S)-(-)-nicotine

Compound | effects at muscle sites (in words) [1] | Muscle Effect [1] | Ganglion Effect [2] | effects at ganglionic sites (in words) [2] | Ki (CNS nicotinic receptors) [µM] | binding to CNS nicotinic receptors (in words) (CNS nicotinic receptors) | EC50 ([3]; rat striatal synaptosomes) [µM] | Dopamine Release Emax [3, 4] [% nicotine] | Dopamine Release Emax ([3]; Emax at 100 uM, % of release by (S)-(-)-nicotine) [% nicotine] | dopamine release (in words) [3]
CN1C2CCC(CC2)C1c1cccnc1 (racemic) [Sample No. 6, (+/-)-2-methyl-3-(3-pyridyl)-2-azabiyclo[2.2.2]octane fumarate] | desirably low effects at muscle sites | 30 | 21 | desirably low effects at muscle sites and ganglionic sites | 0.058 | good high affinity binding to CNS nicotinic receptors | 2 | 10 | – | –
O=C(O)/C=C/C(=O)O.c1cncc(C2NC3CCC2CC3)c1 (racemic) [compound 5, (+/-)-3-(3-pyridyl)-2-azabicyclo[2.2.2]octane fumarate] | desirably low effects at muscle sites | 9 | 3 | desirably low effects at muscle sites and ganglionic sites | 0.035 | good high affinity binding to CNS nicotinic receptors | 2.55 | 4 | – | –
C1=C[C@H]2CC[C@@H]1[C@@H](c1cccnc1)N2 (relative stereo) [Sample No. 1, (+/-)-endo 3-(3-pyridyl)-2-azabicyclo[2.2.2]oct-5-ene fumarate] | – | 69 | 12 | – | 0.476 | – | 0.55 | 14 | – | –
C1=C[C@H]2CC[C@@H]1[C@H](c1cccnc1)N2 (relative stereo) [Sample No. 2, (+/-)-exo-3-(3-pyridyl)-2-azabicyclo[2.2.2]oct-5-ene fumarate] | – | 103 | 65 | – | 0.002 | good high affinity binding to CNS nicotinic receptors | 0.3 | 41 | – | –
CN1[C@H](c2cccnc2)[C@@H]2C=C[C@H]1CC2 (relative stereo) [Sample No. 3, (+/-)-endo-2-methyl-3-(3-pyridyl)-2-azabicyclo[2.2.2]oct-5-ene fumarate] | – | 0 | 0 | – | 6.36 | – | 13 | 9 | – | –
CN1[C@H]2C=C[C@H](CC2)[C@@H]1c1cccnc1 (relative stereo) [Sample No. 4, (+/-)-Exo-2-methyl-3-(3-pyridyl)-2-azabicyclo[2.2.2]oct-5-ene fumarate] | desirably low effects at muscle sites | 8 | 8 | desirably low effects at muscle sites and ganglionic sites | 0.033 | good high affinity binding to CNS nicotinic receptors | 35 | 17 | – | –
CCN1[C@H](c2cccnc2)[C@@H]2C=C[C@H]1C2 (relative stereo) [Sample No. 7, (+/-)-endo-2-ethyl-3-(3-pyridyl)-2-azabicyclo[2.2.1]hept-5-ene] | – | 18 | 2 | – | 7.82 | – | 12.9 | 22 | – | –
COc1ccc(CN2[C@H](c3cccnc3)[C@@H]3C=C[C@H]2C3)cc1 (relative stereo) [Sample No. 8, (+/-)-endo-2-(p-methoxybenzyl)-3-(3-pyridyl)-2-azabicyclo[2.2.1]hept-5-ene] | desirably low effects at muscle sites | – | – | desirably low effects at muscle sites and ganglionic sites | 80.8 | – | > 100 | – | 15 | induce dopamine release
CN1[C@H](c2cccnc2)[C@@H]2C=C[C@H]1C2 (relative stereo) [Sample No. 10, (+/-)-endo-2-methyl-3-(3-pyridyl)-2-azabicyclo[2.2.1]hept-5-ene] | desirably low effects at muscle sites | 25 | 18 | desirably low effects at muscle sites and ganglionic sites | 0.003 | good high affinity binding to CNS nicotinic receptors | 0.086 | 44 | – | –
CN1[C@H](c2cncc(Br)c2)[C@@H]2C=C[C@H]1C2 (relative stereo) [Sample No. 12, (+/-)-endo-2-methyl-3-[3-(5-bromopyridyl)]-2-azabicyclo[2.2.1]hept-5-ene] | – | 2 | 4 | – | 2.1 | – | 1.65 | 12 | – | –
C1=C[C@H]2C[C@@H]1[C@@H](c1cccnc1)N2Cc1ccccc1 (relative stereo) [compound 9, (+/-)-endo-2-benzyl-3-(3-pyridyl)-2-azabicyclo[2.2.1]hept-5-ene] | desirably low effects at muscle sites | 7 | 11 | desirably low effects at muscle sites and ganglionic sites | 141 | – | 11 | 30 | – | induce dopamine release
CN1[C@H]2C=C[C@H](C2)[C@@H]1c1cccnc1 (relative stereo) [compound 11, (+/-)-exo-2-methyl-3-(3-pyridyl)-2-azabicyclo[2.2.1]hept-5-ene] | – | 7 | 55 | – | 0.009 | good high affinity binding to CNS nicotinic receptors | 0.09 | 58 | – | –
CN1CCC[C@H]1c1cccnc1 [Sample No. C-1, (S)-(-)-nicotine, reference compound] | – | – | – | – | – | – | – | 100 | – | –
